Laboratory results as given in article PMC11198769, “Enhancement of transcription efficiency by TAR-Tat system increases the functional expression of human olfactory receptors” (PLOS ONE, 2024).
Where two headings read alike, the source gives them in different places.

How the values were obtained:
OR1A1 = biological target: T1, OR1A1 (Homo sapiens, UniProt Q9P1Q5); test: hOR assay (GloSensor cAMP luciferase), dose-response; type: cell-based; conditions: for EC50: read-out: EC50 value; for top value of OR1A1 dose-response curve: luminescence normalized to a maximum value of 100
T1 construct: Lucy tag (N); FLAG (N); Rho tag (N); expressed in transfected cells; host or cells: Flp-In T-REx-293 cells stably expressing RTP1S, Gαolf and Ric8-b
T1 sequence (Q9P1Q5 1-309): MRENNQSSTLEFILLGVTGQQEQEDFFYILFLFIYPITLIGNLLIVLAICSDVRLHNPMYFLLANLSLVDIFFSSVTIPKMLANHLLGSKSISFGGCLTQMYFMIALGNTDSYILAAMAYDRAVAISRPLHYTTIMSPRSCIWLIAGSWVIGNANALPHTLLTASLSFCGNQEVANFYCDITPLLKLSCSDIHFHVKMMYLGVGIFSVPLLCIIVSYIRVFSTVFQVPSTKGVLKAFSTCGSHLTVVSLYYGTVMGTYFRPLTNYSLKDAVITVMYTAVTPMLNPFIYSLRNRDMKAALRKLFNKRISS
Protocol: (§1) Flp-In T-REx-293 cells stably expressing accessory proteins (RTP1S, Gαolf, and Ric8-b) were established using the Flp-In T-REx system. Accessory proteins-expressing cells were maintained in high-glucose Dulbecco’s modified Eagle medium (Sigma-Aldrich) containing 10% fetal bovine serum (Biowest) and 1% antibiotic–antimycotic (Nacalai tesque) at 37°C with 5% CO2.
(§2) The GloSensor™ Technology (Promega) was used for the luciferase assay of the hOR response. As the negative control, cells that were transfected by the pBApo-CMV neo vector and pHEK293 Ultra Expression Vector I were used as mock cells. hOR/pHEK and hOR/pBApo (50 ng/well) were transfected into the accessory proteins-expressing cell line (40000 cells/well) using Lipofectamine 2000 (Thermo Fisher Scientific) (400 nL/well) along with pGlosensor™-22F cAMP biosensor plasmid (Promega) (50 ng/well) in a 96-well plate. At 28 h posttransfection, the cells were washed with an assay buffer (140 mM NaCl, 10 mM HEPES, 5 mM KCl, 1 mM CaCl2・2H2O, 10 mM D-glucose, pH 7.5) and replaced with the assay buffer (50 μL/well) containing 2% GloSensor cAMP substrate and preincubated for 1 h at 25°C. Then, the assay buffer was added (130 μL/well). After 10 min of equilibration, the luminescence was measured (L0). Odorants diluted in 10% DMSO/assay buffer were treated (20 μL/well). After 9 min, the luminescence was measured (L9min). First, all the L9min values were subtracted by the L0 value (ΔL) and divided by the L0 value (ΔL/L0). The concentration range of the odorants was different for each odorant, but the minimum was 0.01 μM and the maximum was 3 mM. For all hORs, luciferase assays with hOR/pBApo and hOR/pHEK were conducted in the same 96-well plate each time, and luminescence was normalized to a maximum value of 100. Dose–response curve images were graphed using the Graph Pad Prism 9 software (Graph Pad Software).

OR2M3 = biological target: T2, OR2M3 (Homo sapiens, UniProt Q8NG83); test: as above; type: cell-based; conditions: OR2M3/pHEK plasmid
T2 construct: Lucy tag (N); expressed in transfected cells; host or cells: Flp-In T-REx-293 cells stably expressing RTP1S, Gαolf and Ric8-b
T2 sequence (Q8NG83 1-312): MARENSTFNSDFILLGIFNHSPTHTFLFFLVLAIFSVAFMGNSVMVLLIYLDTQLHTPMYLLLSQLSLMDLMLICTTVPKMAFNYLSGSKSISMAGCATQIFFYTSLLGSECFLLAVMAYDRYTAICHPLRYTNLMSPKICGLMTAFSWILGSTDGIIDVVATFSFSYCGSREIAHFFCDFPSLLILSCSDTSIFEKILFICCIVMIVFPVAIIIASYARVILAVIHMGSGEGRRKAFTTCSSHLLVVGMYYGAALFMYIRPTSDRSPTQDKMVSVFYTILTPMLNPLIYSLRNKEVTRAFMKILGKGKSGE
Protocol: as §1, §2

response of HiBiT-tagged OR1A1 (OR1A1; OR1A1 with the HiBiT tag (S1 Fig)) | EC50 (OR1A1; OR1A1 with the TAR-Tat system (OR1A1/pHEK)) | EC50 (OR1A1; OR1A1 without the TAR-Tat system (OR1A1/pBApo)) | top value of OR1A1 dose-response curve (OR1A1; with the TAR-Tat system (OR1A1/pHEK)) | top value of OR1A1 dose-response curve (OR1A1; without the TAR-Tat system (OR1A1/pBApo)) | EC50 (OR2M3) | Structure (SMILES)
a dose-dependent response was detected | 0.905 µM | 4.4 µM | 90.4 | 53.9 |  | C=C(C)[C@H]1CC=C(C)C(=O)C1 [(+)-carvone]
 |  |  |  |  | 0.159 µM | CCC(S)C(C)CO (stereo not drawn) [3-mercapto-2-methyl-1-pentanol]
